Reference: the supplement of paper PMC10331698
± gives the standard deviation of the averaged measurements.

How the values were obtained:
Assay in all cases: level (log10 ratio to DMSO vehicle control); higher = higher biomarker level / cell amount than vehicle control
[1] = compound: O=C(O)C=CC(F)(C(F)(F)F)C(F)(F)F [3-(Perfluoroisopropyl)-2-propenoic acid]; conditions: in DMSO
Description: (§1)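 BioMAP Diversity Plus panel of 12 human primary cell co-culture systems (3C, 4H, LPS, SAg, BT, BF4T, BE3C, CASM3C, HDF3CGF, KF3CT, MyoF, Mphg). Compounds were added 1 h before stimulation and left for 24 h (MyoF 48 h; BT 72 h for soluble read-outs or 6 d for IgG). Biomarkers were read by ELISA, cytotoxicity by SRB, PBMC viability and proliferation by Alamar Blue. Each well value was divided by the mean of 8 DMSO control wells on the same plate and log10 transformed; duplicate blinded samples were tested at 4 concentrations.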

Hexafluoroamylene glycol = compound: OCC(F)(F)C(F)(F)C(F)(F)CO [Hexafluoroamylene glycol]; conditions: in DMSO
Description: as §1

[2] = compound: C=C(C)C(=O)OCCC(F)(F)C(F)(F)C(F)(F)C(F)(F)C(F)(F)C(F)(F)F [6:2 Fluorotelomer methacrylate]; conditions: in DMSO
Description: as §1

[3] = compound: O=C(O)C(F)(F)C(F)(F)C(F)(F)C(F)(F)C(F)(F)C(F)(F)C(F)(F)C(F)(F)C(F)(F)C(F)F [11-H-Perfluoroundecanoic acid]; conditions: in DMSO
Description: as §1

[4] = compound: NC(=O)C(F)(F)C(F)(F)C(F)(F)C(F)F; conditions: in DMSO
Description: as §1

[5] = compound: COC(=O)C(F)(F)C(F)(F)OC(F)(C(F)(F)F)C(F)(F)OC(F)=C(F)F [Methyl perfluoro(3-(1-ethenyloxypropan-2-yloxy)propanoate)]; conditions: in DMSO
Description: as §1

[6] = compound: NS(=O)(=O)C(F)(F)C(F)(F)C(F)(F)C(F)(F)C(F)(F)C(F)(F)F [Perfluorohexanesulfonamide]; conditions: in DMSO
Description: as §1

[7] = compound: FC(F)(F)C(F)(F)C(F)(F)C(F)(F)C(F)(F)C(F)(F)C(F)(F)I [1-Iodopentadecafluoroheptane]; conditions: in DMSO
Description: as §1

[8] = compound: C=CC(=O)OCC(F)(F)C(F)(F)C(F)(F)COC(=O)C=C [1H,1H,5H,5H-Perfluoro-1,5-pentanediol diacrylate]; conditions: 6700 nM; in DMSO
Description: as §1

[9] = compound: O=S(=O)(O)CCC(F)(F)C(F)(F)C(F)(F)C(F)(F)C(F)(F)C(F)(F)F [6:2 Fluorotelomer sulfonic acid]; conditions: in DMSO
Description: as §1

[10] = compound: O=S(=O)(Cl)C(F)(F)C(F)(F)C(F)(F)C(F)(F)C(F)(F)C(F)(F)C(F)(F)C(F)(F)F [Perfluoro-1-octanesulfonyl chloride]; conditions: in DMSO
Description: as §1

Octafluoroadipamide = compound: NC(=O)C(F)(F)C(F)(F)C(F)(F)C(F)(F)C(N)=O [Octafluoroadipamide]; conditions: in DMSO
Description: as §1

Nonafluoropentanamide = compound: NC(=O)C(F)(F)C(F)(F)C(F)(F)C(F)(F)F [Nonafluoropentanamide]; conditions: in DMSO
Description: as §1

Heptafluorobutyl iodide = compound: FC(F)(F)C(F)(F)C(F)(F)CI [Heptafluorobutyl iodide]; conditions: in DMSO
Description: as §1

[11] = compound: FC(F)(F)C(F)(F)C(F)(F)C(F)(F)C(F)(F)C(F)(F)CC1CO1 [3-(Perfluorohexyl)-1,2-epoxypropane]; conditions: in DMSO
Description: as §1

[12] = compound: FC(F)(F)C(F)(F)C(F)(F)CC1CO1 [1H,1H-Heptafluorobutyl epoxide]; conditions: in DMSO
Description: as §1

[13] = compound: O=S(=O)(F)C(F)(F)C(F)(F)C(F)(F)C(F)(F)C(F)(F)C(F)(F)C(F)(F)C(F)(F)F [Perfluorooctanesulfonyl fluoride]; conditions: in DMSO
Description: as §1

[14] = compound: O=S(=O)(O)C(F)(F)C(F)(F)C(F)(F)C(F)(F)C(F)(F)C(F)(F)C(F)(F)C(F)(F)C(F)(F)C(F)(F)F [Sodium perfluorodecanesulfonate]; conditions: in DMSO
Description: as §1

[15] = compound: FC(F)(F)C(F)(F)CNCC(F)(F)C(F)(F)F [Bis(1H,1H-perfluoropropyl)amine]; conditions: in DMSO
Description: as §1

lMphg:CD106/VCAM-1
level (log10) ([1]; 6700 nM): 0.001 ± 0.024 | level (log10) ([1]; 20000 nM): 0.0125 ± 0.005 | level (log10) ([1]; 60000 nM): 0.002 ± 0.034 | level (log10) (Hexafluoroamylene glycol; 6700 nM): -0.0185 ± 0.012 | level (log10) (Hexafluoroamylene glycol; 20000 nM): -0.014 ± 0.0057 | level (log10) (Hexafluoroamylene glycol; 60000 nM): -0.0175 ± 0.0092 | level (log10) ([2]; 6700 nM): -0.024 ± 0.013 | level (log10) ([2]; 20000 nM): -0.007 ± 0.021 | level (log10) ([2]; 60000 nM): -0.021 ± 0.011 | level (log10) ([3]; 6700 nM): -0.0065 ± 0.0035 | level (log10) ([3]; 20000 nM): 0.014 ± 0.023 | level (log10) ([4]; 6700 nM): 0 ± 0.013 | level (log10) ([4]; 20000 nM): 0.006 ± 0.0014 | level (log10) ([4]; 60000 nM): -0.003 ± 0.017 | level (log10) ([5]; 6700 nM): -0.008 ± 0.025 | level (log10) ([5]; 20000 nM): -0.006 ± 0.025 | level (log10) ([6]; 6700 nM): -0.0155 ± 0.025 | level (log10) ([6]; 20000 nM): -0.012 ± 0.024 | level (log10) ([6]; 60000 nM): -0.0805 ± 0.018 | level (log10) ([7]; 6700 nM): -0.0025 ± 0.0064 | level (log10) ([7]; 20000 nM): -0.007 ± 0.017 | level (log10) [8]: -0.0615 ± 0.025 | level (log10) ([9]; 6700 nM): -0.007 ± 0.011 | level (log10) ([9]; 20000 nM): -0.0125 ± 0.0092 | level (log10) ([9]; 60000 nM): -0.022 ± 0.0071 | level (log10) ([10]; 6700 nM): 0.008 ± 0.0057 | level (log10) ([10]; 20000 nM): 0.0135 ± 0.0078 | level (log10) ([10]; 60000 nM): 0.0255 ± 0.00071 | level (log10) (Octafluoroadipamide; 6700 nM): 0.014 ± 0.013 | level (log10) (Octafluoroadipamide; 20000 nM): 0.019 ± 0.0085 | level (log10) (Octafluoroadipamide; 60000 nM): 0.0125 ± 0.0021 | level (log10) (Nonafluoropentanamide; 6700 nM): -0.0255 ± 0.033 | level (log10) (Nonafluoropentanamide; 20000 nM): 0.0065 ± 0.028 | level (log10) (Nonafluoropentanamide; 60000 nM): -0.012 ± 0.028 | level (log10) (Heptafluorobutyl iodide; 6700 nM): -0.0115 ± 0.005 | level (log10) (Heptafluorobutyl iodide; 20000 nM): -0.022 ± 0.0085 | level (log10) (Heptafluorobutyl iodide; 60000 nM): -0.0175 ± 0.016 | level (log10) ([11]; 6700 nM): 0.0025 ± 0.012 | level (log10) ([11]; 20000 nM): 0.005 ± 0.013 | level (log10) ([11]; 60000 nM): -0.0015 ± 0.018 | level (log10) ([12]; 6700 nM): 0.003 ± 0.011 | level (log10) ([12]; 20000 nM): 0.012 ± 0.016 | level (log10) ([12]; 60000 nM): 0.0095 ± 0.011 | level (log10) ([13]; 6700 nM): 0.009 ± 0.017 | level (log10) ([13]; 20000 nM): 0.0205 ± 0.012 | level (log10) ([13]; 60000 nM): -0.0125 ± 0.0092 | level (log10) ([14]; 1500 nM): -0.0065 ± 0.012 | level (log10) ([14]; 4400 nM): -0.0215 ± 0.018 | level (log10) ([14]; 13000 nM): -0.021 ± 0.0071 | level (log10) ([14]; 40000 nM): -0.0515 ± 0.0078 | level (log10) ([15]; 6700 nM): 0.0135 ± 0.011 | level (log10) ([15]; 20000 nM): 0.0055 ± 0.0092 | level (log10) ([15]; 60000 nM): 0.0075 ± 0.0035

lMphg:SRB
level (log10) ([1]; 6700 nM): -0.017 ± 0.0085 | level (log10) ([1]; 20000 nM): -0.012 ± 0.0099 | level (log10) ([1]; 60000 nM): -0.0085 ± 0.012 | level (log10) (Hexafluoroamylene glycol; 6700 nM): 0.0055 ± 0.015 | level (log10) (Hexafluoroamylene glycol; 20000 nM): 0.007 ± 0.02 | level (log10) (Hexafluoroamylene glycol; 60000 nM): -0.002 | level (log10) ([2]; 6700 nM): -0.0065 ± 0.025 | level (log10) ([2]; 20000 nM): -0.0115 ± 0.015 | level (log10) ([2]; 60000 nM): -0.0175 ± 0.00071 | level (log10) ([3]; 6700 nM): -0.004 ± 0.0057 | level (log10) ([3]; 20000 nM): 0.017 ± 0.0099 | level (log10) ([4]; 6700 nM): -0.008 ± 0.0057 | level (log10) ([4]; 20000 nM): -0.007 ± 0.0042 | level (log10) ([4]; 60000 nM): -0.0005 ± 0.018 | level (log10) ([5]; 6700 nM): 0.0025 ± 0.011 | level (log10) ([5]; 20000 nM): 0.0025 ± 0.011 | level (log10) ([6]; 6700 nM): -0.007 ± 0.0042 | level (log10) ([6]; 20000 nM): -0.015 ± 0.0028 | level (log10) ([6]; 60000 nM): -0.0645 ± 0.0064 | level (log10) ([7]; 6700 nM): -0.01 ± 0.0014 | level (log10) ([7]; 20000 nM): -0.0015 ± 0.0021 | level (log10) [8]: 0.001 ± 0.0014 | level (log10) ([9]; 6700 nM): -0.001 ± 0.011 | level (log10) ([9]; 20000 nM): 0.0125 ± 0.019 | level (log10) ([9]; 60000 nM): -0.002 ± 0.018 | level (log10) ([10]; 6700 nM): -0.004 ± 0.0014 | level (log10) ([10]; 20000 nM): -0.004 ± 0.011 | level (log10) ([10]; 60000 nM): -0.002 ± 0.0071 | level (log10) (Octafluoroadipamide; 6700 nM): -0.004 ± 0.0014 | level (log10) (Octafluoroadipamide; 20000 nM): 0 ± 0.0042 | level (log10) (Octafluoroadipamide; 60000 nM): 0.008 ± 0.017 | level (log10) (Nonafluoropentanamide; 6700 nM): 0.003 ± 0.014 | level (log10) (Nonafluoropentanamide; 20000 nM): 0.003 ± 0.0071 | level (log10) (Nonafluoropentanamide; 60000 nM): -0.006 ± 0.0042 | level (log10) (Heptafluorobutyl iodide; 6700 nM): -0.0035 ± 0.0035 | level (log10) (Heptafluorobutyl iodide; 20000 nM): 0.0065 ± 0.0092 | level (log10) (Heptafluorobutyl iodide; 60000 nM): 0.0045 ± 0.0064 | level (log10) ([11]; 6700 nM): -0.012 ± 0.0042 | level (log10) ([11]; 20000 nM): -0.016 ± 0.0071 | level (log10) ([11]; 60000 nM): 0.0115 ± 0.005 | level (log10) ([12]; 6700 nM): -0.001 ± 0.0028 | level (log10) ([12]; 20000 nM): 0.0025 ± 0.0035 | level (log10) ([12]; 60000 nM): -0.002 ± 0.0085 | level (log10) ([13]; 6700 nM): 0.005 ± 0.0099 | level (log10) ([13]; 20000 nM): -0.0085 ± 0.0092 | level (log10) ([13]; 60000 nM): -0.0015 ± 0.0092 | level (log10) ([14]; 1500 nM): -0.0075 ± 0.012 | level (log10) ([14]; 4400 nM): -0.0025 ± 0.00071 | level (log10) ([14]; 13000 nM): -0.001 ± 0.0099 | level (log10) ([14]; 40000 nM): -0.011 ± 0.0099 | level (log10) ([15]; 6700 nM): -0.0085 ± 0.00071 | level (log10) ([15]; 20000 nM): -0.007 ± 0.0028 | level (log10) ([15]; 60000 nM): 0.009 ± 0.018
